Structures can show the parent of a compound that is named as a salt. Where two headings read alike, the source gives them in different places.

The record followed here is US9617242B2, “Histone demethylase inhibitors” (priority 2012, dated 2017).

In assay [1] the target is Jarid1A (Homo sapiens (Human), UniProt P29375). Briefly: Jarid1A in vitro enzyme inhibition assay (TR-FRET). It counts as biochemical. For orientation: Time-resolved FRET reads energy transfer from a long-lived donor to a nearby acceptor.
Assay [2] concerns the target Jarid1B (Homo sapiens (Human), UniProt Q9UGL1). Briefly: Jarid1B in vitro enzyme inhibition assay (TR-FRET). It counts as biochemical.
Assay [3] deals with JMJD2C (Homo sapiens (Human), UniProt Q9H3R0). Briefly: JMJD2C in vitro enzyme inhibition assay (TR-FRET). The assay is classed as biochemical.
Assay [4] has as its system KDM5A/B. Briefly: In vitro cell-based assay: tri-methyl H3K4 immuno-blotting in ZR-75-1 breast cancer cells. As for the experimental part:
This quantitative immuno-blotting assay measures the amount tri-methylated histone H3 at amino acid Lysine number 4, a specific substrate […] of the direct enzymatic activity of the histone demethylases KDM5A and KDM5B from extracts of the ZR-75-1 breast cancer cell line.
This assay is a fluorometric immunoassay for the quantification of tri-methyl H3K4 extracted from cells treated with test compound and is used as a measure of the cellular inhibition of KDM5A/B.
Extracts were prepared containing all of the cellular histone material using detergent based lysis and sonication methods. These lysates were subsequently normalized for total protein content using a colorimetric bicinchonic acid assay (MicroBCA Pierce/Thermo Scientific). Normalized cell extracts were then subjected to typical immuno-blotting procedures using NuPage reagents (Life Technologies). Electrophoretically separated histones were then transferred and immobilized using polyvinylidene difluoride membrane (Immobilon-FL Millipore). The amount of tri-methylated lysine 4 of histone H3 was detected using an antibody specific to the tri-methylated state (Cell Signaling Technologies) and quantified on an infrared imager using a densitometry software package (Odyssey CLx, Image Studio, Li-Cor). This background subtracted densitometry value was reported as a ration of the GAPDH amount for that sample and then calculated as a percent of the DMSO treated sample. The software package XL-fit (IDBS) was then used to calculate a relative IC50 value for the dilution series of a given test compound according to the equation: fit=(D+((Vmax*(x^n))/((x^n)+(Km^n)))).

Setting [5] is: 72 hours, read-out: Cellular IC50.
[6] abbreviates: read-out: Cellular IC50, 72 hours.

Chain of Jarid1A (P29375 1-1090): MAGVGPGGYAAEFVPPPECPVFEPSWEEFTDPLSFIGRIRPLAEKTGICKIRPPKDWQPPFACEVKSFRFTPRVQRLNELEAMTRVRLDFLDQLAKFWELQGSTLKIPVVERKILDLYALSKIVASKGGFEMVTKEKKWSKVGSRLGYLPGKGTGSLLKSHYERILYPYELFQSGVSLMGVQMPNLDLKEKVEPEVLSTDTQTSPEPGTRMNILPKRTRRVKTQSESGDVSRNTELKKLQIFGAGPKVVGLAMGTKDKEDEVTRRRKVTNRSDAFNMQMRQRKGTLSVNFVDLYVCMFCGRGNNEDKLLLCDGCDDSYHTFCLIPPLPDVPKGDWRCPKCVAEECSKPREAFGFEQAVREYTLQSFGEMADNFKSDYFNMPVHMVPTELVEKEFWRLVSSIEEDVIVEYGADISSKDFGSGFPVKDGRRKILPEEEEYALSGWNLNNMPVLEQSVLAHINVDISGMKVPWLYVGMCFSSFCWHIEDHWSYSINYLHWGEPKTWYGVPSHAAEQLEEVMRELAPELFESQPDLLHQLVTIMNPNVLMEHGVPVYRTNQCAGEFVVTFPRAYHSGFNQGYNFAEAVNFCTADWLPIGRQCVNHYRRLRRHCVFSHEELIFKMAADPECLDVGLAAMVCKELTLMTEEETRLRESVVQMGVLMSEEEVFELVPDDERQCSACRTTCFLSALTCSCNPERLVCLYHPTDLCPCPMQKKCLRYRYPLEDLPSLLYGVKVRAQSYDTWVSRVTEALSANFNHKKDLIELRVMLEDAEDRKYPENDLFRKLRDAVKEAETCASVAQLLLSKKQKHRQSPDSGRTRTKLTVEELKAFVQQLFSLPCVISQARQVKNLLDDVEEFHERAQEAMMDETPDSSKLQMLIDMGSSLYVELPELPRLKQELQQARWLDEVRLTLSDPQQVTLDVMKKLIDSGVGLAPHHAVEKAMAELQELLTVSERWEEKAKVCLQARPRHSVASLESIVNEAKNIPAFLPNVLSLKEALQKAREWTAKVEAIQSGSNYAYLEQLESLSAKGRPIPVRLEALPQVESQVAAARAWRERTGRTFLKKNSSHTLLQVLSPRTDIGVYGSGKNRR
Chain of Jarid1B (Q9UGL1 2-751): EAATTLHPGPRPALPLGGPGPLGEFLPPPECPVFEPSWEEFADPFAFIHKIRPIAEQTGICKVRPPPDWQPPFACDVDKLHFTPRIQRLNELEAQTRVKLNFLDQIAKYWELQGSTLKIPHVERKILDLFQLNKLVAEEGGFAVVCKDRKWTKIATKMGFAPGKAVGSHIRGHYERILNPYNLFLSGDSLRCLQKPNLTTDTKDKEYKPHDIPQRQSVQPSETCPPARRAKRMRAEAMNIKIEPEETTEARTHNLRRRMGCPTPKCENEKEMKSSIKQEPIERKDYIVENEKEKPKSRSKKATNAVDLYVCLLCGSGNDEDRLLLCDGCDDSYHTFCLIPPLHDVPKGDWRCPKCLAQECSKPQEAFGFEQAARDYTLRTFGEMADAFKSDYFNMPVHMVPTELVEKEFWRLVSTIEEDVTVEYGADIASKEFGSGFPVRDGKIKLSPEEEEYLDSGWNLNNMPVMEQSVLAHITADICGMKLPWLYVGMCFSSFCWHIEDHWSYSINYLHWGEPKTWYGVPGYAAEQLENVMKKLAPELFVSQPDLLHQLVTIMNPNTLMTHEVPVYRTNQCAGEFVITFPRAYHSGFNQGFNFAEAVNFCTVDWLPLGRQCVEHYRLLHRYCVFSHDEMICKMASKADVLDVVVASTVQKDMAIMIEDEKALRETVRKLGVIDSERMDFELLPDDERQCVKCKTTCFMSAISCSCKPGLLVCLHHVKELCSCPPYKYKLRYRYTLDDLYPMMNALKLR
Chain of JMJD2C (Q9H3R0 2-372): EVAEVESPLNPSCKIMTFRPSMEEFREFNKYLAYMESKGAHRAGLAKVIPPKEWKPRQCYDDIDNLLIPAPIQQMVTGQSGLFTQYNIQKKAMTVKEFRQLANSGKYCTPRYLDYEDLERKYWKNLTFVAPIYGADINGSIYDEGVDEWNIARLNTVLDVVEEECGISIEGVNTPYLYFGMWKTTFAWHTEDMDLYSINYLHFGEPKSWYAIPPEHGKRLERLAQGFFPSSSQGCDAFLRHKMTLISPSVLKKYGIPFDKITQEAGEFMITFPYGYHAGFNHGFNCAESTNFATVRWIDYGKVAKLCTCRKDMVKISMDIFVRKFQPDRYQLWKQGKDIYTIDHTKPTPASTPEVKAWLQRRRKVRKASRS

With `CN(C)CCOCCn1nc(Nc2cnccc2C(=O)O)c2cc(F)ccc21` [Example 27, 3-[(1-{2-[2-(dimethylamino)ethoxy]ethyl}-5-fluoro-1H-indazol-3-yl)amino]pyridine-4-carboxylic acid, acetic acid salt], the half-maximal inhibitory concentration (IC50) in assay [1] was < 100 nM; in assay [2] it was < 100 nM; in assay [3], < 100 nM; in assay [4] (setting [5]), > 10 µM.
In the case of `O=C(O)c1ccncc1Nc1nn(CCCO)c2ccc(F)cc12` [Example 42, 3-{[5-fluoro-1-(3-hydroxypropyl)-1H-indazol-3-yl]amino}pyridine-4-carboxylic acid], the IC50 is < 100 nM in assay [1], < 100 nM in assay [2], < 100 nM in assay [3] and 1 to 10 µM in assay [4] (setting [5]).
As for `CN(C)CCCCn1nc(Nc2cnccc2C(=O)O)c2cc(F)ccc21` [Example 43, 3-({1-[4-(dimethylamino)butyl]-5-fluoro-1H-indazol-3-yl}amino)pyridine-4-carboxylic acid, trifluoroacetic acid salt], the half-inhibitory concentration (IC50) in assay [1] was < 100 nM; in assay [2], < 100 nM; in assay [3], < 100 nM; in assay [4] (setting [6]) it was 1 to 10 µM.
For `O=C(O)c1ccncc1Nc1nn(CCC2CCCNC2)c2ccc(F)cc12` (centres unmarked) [Example 47, 3-({5-fluoro-1-[2-(piperidin-3-yl)ethyl]-1H-indazol-3-yl}amino)pyridine-4-carboxylic acid, trifluoroacetic acid salt], the IC50 in assay [1] is < 100 nM; in assay [2], < 100 nM; in assay [3] it was < 100 nM; in assay [4] (setting [6]) it was > 10 µM.
For `O=C(O)c1ccncc1Nc1nn(CC(O)CO)c2ccc(F)cc12` (centres unmarked) [Example 48, 3-{[1-(2,3-dihydroxypropyl)-5-fluoro-1H-indazol-3-yl]amino}pyridine-4-carboxylic acid], the IC50 in assay [1] is < 100 nM; in assay [2] it was < 100 nM; in assay [3], < 100 nM; in assay [4] (setting [5]), > 10 µM.
For `O=C(O)c1ccncc1Nc1nn(CCN2CCCC2)c2ccc(F)cc12` [Example 50, 3-({5-fluoro-1-[2-(pyrrolidin-1-yl)ethyl]-1H-indazol-3-yl}amino)pyridine-4-carboxylic acid], the IC50 in assay [1] was < 100 nM; in assay [2], < 100 nM; in assay [3], < 100 nM; in assay [4] (setting [5]) it was 1 to 10 µM.
Take `CC(O)Cn1nc(Nc2cnccc2C(=O)O)c2cc(F)ccc21` (centres unmarked) [Example 51, 3-{[5-fluoro-1-(2-hydroxypropyl)-1H-indazol-3-yl]amino}pyridine-4-carboxylic acid]: the IC50 in assay [1] is < 100 nM; in assay [2], < 100 nM; in assay [3] it was < 100 nM; in assay [4] (setting [5]), 1 to 10 µM.
For the compound `CCCn1nc(Nc2cnccc2C(=O)O)c2cc(C#N)ccc21` [Example 53], the IC50 was < 100 nM in assay [1], < 100 nM in assay [2], < 100 nM in assay [3] and 1 to 10 µM in assay [4] (setting [5]).
For `O=C(O)c1ccncc1Nc1nn(C2CCOC2)c2ccc(F)cc12` (centres unmarked) [Example 54, 3-{[5-fluoro-1-(tetrahydrofuran-3-yl)-1H-indazol-3-yl]amino}pyridine-4-carboxylic acid], the IC50 in assay [1] was < 100 nM; in assay [2], < 100 nM; in assay [3] it was < 100 nM; in assay [4] (setting [5]), 1 to 10 µM.
For `CN1CCOC(CCn2nc(Nc3cnccc3C(=O)O)c3cc(F)ccc32)C1` (centres unmarked) [Example 58, 3-({5-fluoro-1-[2-(4-methylmorpholin-2-yl)ethyl]-1H-indazol-3-yl}amino)pyridine-4-carboxylic acid], the IC50 in assay [1] is < 100 nM; in assay [2] it was < 100 nM; in assay [3] it was < 100 nM; in assay [4] (setting [5]) it was 1 to 10 µM.
With `O=C(O)c1ccncc1Nc1nn([C@H]2CCOC2)c2ccc(F)cc12` [Example 66, 3-({5-fluoro-1-[(3S)-tetrahydrofuran-3-yl]-1H-indazol-3-yl}amino)pyridine-4-carboxylic acid], the IC50 is < 100 nM in assay [1], < 100 nM in assay [2], < 100 nM in assay [3] and 1 to 10 µM in assay [4] (setting [5]).
With `O=C(O)c1ccncc1Nc1nn([C@@H]2CCOC2)c2ccc(F)cc12` [Example 67, 3-({5-fluoro-1-[(3R)-tetrahydrofuran-3-yl]-1H-indazol-3-yl}amino)pyridine-4-carboxylic acid], the IC50 in assay [1] is < 100 nM; in assay [2] it was < 100 nM; in assay [3], < 100 nM; in assay [4] (setting [5]), 1 to 10 µM.
With `O=C(O)c1ccncc1Nc1nn(CCN2CCC(F)(F)C2)c2ccc(F)cc12` [Example 71, 3-({1-[2-(3,3-difluoropyrrolidin-1yl)ethyl]-5-fluoro-1H-indazol-3-yl}amino)pyridine-4-carboxylic acid], the IC50 was < 100 nM in assay [1], < 100 nM in assay [2], < 100 nM in assay [3] and 1 to 10 µM in assay [4] (setting [5]).
As for `O=C(O)c1ccncc1Nc1nn(CCN2CCC(F)(F)CC2)c2ccc(F)cc12` [Example 73, 3-({1-[2-(4,4-difluoropiperidin-1yl)ethyl]-5-fluoro-1H-indazol-3-yl}amino)pyridine-4-carboxylic acid], the IC50 in assay [1] was < 100 nM; in assay [2] it was < 100 nM; in assay [3], < 100 nM; in assay [4] (setting [5]), 0.1 to 1 µM.

The IC50 is the midpoint of a concentration-inhibition curve.
